Observed efficacy and inhibition of growth data for 19 compounds are collected here from patent publication US20140121103A1, “COMPOSITIONS COMPRISING FUNGICIDAL SUBSTITUTED DITHIINES AND FURTHER ACTIVES” (BASF SE, priority 2011, published 2014).

Like-named read-outs stand apart in the source and are kept apart here.

Common to all, as to type: cell-based
One test deals with Pyricularia oryzae. The settings on record: active alone.
The test system of the next test is Septoria tritici. The test is described as follows: Activity against leaf blotch on wheat caused by Septoria tritici (microtiter plate). The settings on record: active alone.
For another test, the system named is Alternaria solani. The test can be described thus: Activity against early blight caused by Alternaria solani (microtiter plate). Conditions: active alone.
Another test concerns Leptosphaeria nodorum. The test can be described thus: Activity against wheat leaf spots caused by Leptosphaeria nodorum (microtiter plate).
Another test deals with Botrytis cinerea. The test can be described thus: Activity against the grey mold Botrytis cinerea in the microtiterplate test. Conditions: active alone.
Where [1] appears, read: Parastagonospora nodorum, 168 h, active alone, read-out: Observed efficacy.

For `CCCCCCCCc1c(CC)nc2ncnn2c1N` [Ametoctradin], the Observed efficacy was 12% in the test on Pyricularia oryzae (4 ppm); 13% in the test on Septoria tritici (4 ppm); 4% in the test with Alternaria solani (4 ppm); 31% in the test with Leptosphaeria nodorum (active alone, 4 ppm).

Consider `CO/C=C(/C(=O)OC)c1ccccc1Oc1cc(Oc2ccccc2C#N)ncn1` [Azoxystrobin], for which the Observed efficacy with Septoria tritici (0.25 ppm) came out at 65%.

Take `CC(C)[C@H](NC(=O)O)C(=O)N[C@H](C)c1nc2ccc(F)cc2s1` [Benthiavalicarb]: the Observed efficacy was 3% in the test with Pyricularia oryzae (4 ppm); 10% in the test with Septoria tritici (4 ppm); 27% with Leptosphaeria nodorum (active alone, 4 ppm).

Take `O=C(Nc1ccccc1-c1ccc(Cl)cc1)c1cccnc1Cl` [Boscalid]: the Observed efficacy in the test on Pyricularia oryzae (16 ppm) stood at 6%. The inhibition of growth at 16 ppm in the test on Leptosphaeria nodorum (setting [1]) is 25%.

For the compound `COC(=O)Nc1nc2ccccc2[nH]1` [Carbendazim], the Observed efficacy with Septoria tritici (0.016 ppm) was found to be 0%; with Alternaria solani (4 ppm), 35%; in the test on Botrytis cinerea (0.063 ppm) it was 75%.

On to `N#Cc1c(Cl)c(Cl)c(Cl)c(C#N)c1Cl` [Chlorothalonil], for which the results for the Observed efficacy in the test with Alternaria solani (1 ppm) and with Botrytis cinerea (4 ppm) were 17% and 58%, respectively. Besides, the inhibition of growth at 1 ppm in the test on Leptosphaeria nodorum (setting [1]) amounted to 22%.

Consider `N#CC1=C(C#N)SC(C#N)=C(C#N)S1` [Compound I.A, 2,3,5,6-tetracyano-[1,4]dithiine], for which the Observed efficacy stood at 20% in the test with Pyricularia oryzae (4 ppm); 8% in the test on Septoria tritici (0.016 ppm); 18% with Septoria tritici (1 ppm); 74% with Septoria tritici (4 ppm); 11% in the test with Alternaria solani (1 ppm); 46% in the test with Alternaria solani (4 ppm). Besides, the Observed efficacy in the test with Botrytis cinerea (0.063 ppm) worked out at 1%; in the test with Botrytis cinerea (4 ppm), 14%. Also, the inhibition of growth at 4 ppm with Leptosphaeria nodorum (Parastagonospora nodorum, 168 h, read-out: Observed efficacy) worked out at 53%. The inhibition of growth at 1 ppm in the test on Leptosphaeria nodorum (setting [1]) was 7%.

With `Cc1ccc(-c2c(Cl)nc(C#N)n2S(=O)(=O)N(C)C)cc1` [Cyazofamid], the figures for the Observed efficacy in the test on Pyricularia oryzae (1 ppm) and with Septoria tritici (1 ppm) were 8% and 2%, respectively. Also, the inhibition of growth at 1 ppm with Leptosphaeria nodorum (setting [1]) amounted to 25%.

Turning to `CC1COC(Cn2cncn2)(c2ccc(Oc3ccc(Cl)cc3)cc2Cl)O1` (centres unmarked) [Difenoconazol], the Observed efficacy in the test with Pyricularia oryzae (1 ppm) is 27%.

In the test with Septoria tritici (16 ppm), `CC1(C(=O)Nc2ccc(O)c(Cl)c2Cl)CCCCC1` [Fenhexamid] gave an Observed efficacy of 28%. For the same compound, the inhibition of growth at 16 ppm in the test with Leptosphaeria nodorum (setting [1]) is 37%.

In the case of `Cn1cc(C(=O)Nc2ccccc2-c2cc(F)c(F)c(F)c2)c(C(F)F)n1` [Fluxapyroxad], the Observed efficacy with Pyricularia oryzae (0.063 ppm) came out at 7%; with Leptosphaeria nodorum (active alone, 0.063 ppm), 23%.

As to `CC(C)NC(=O)N1CC(=O)N(c2cc(Cl)cc(Cl)c2)C1=O` [Iprodion], the Observed efficacy in the test on Pyricularia oryzae (4 ppm) was 29%; in the test with Septoria tritici (4 ppm) it was 0%. Further, in the test with Leptosphaeria nodorum (Parastagonospora nodorum, 168 h, active alone, 4 ppm, read-out: Observed efficacy), the inhibition of growth at 4 ppm came out at 54%.

For the compound `Cc1ccc(C(C)NC(=O)[C@@H](NC(=O)OC(C)C)C(C)C)cc1` (some centres unmarked) [Iprovalicarb], the Observed efficacy with Pyricularia oryzae (4 ppm) worked out at 6%; with Septoria tritici (4 ppm), 13%.

`COCC(=O)N(c1c(C)cccc1C)[C@H](C)C(=O)OC` [Metalaxyl-M]: the Observed efficacy in the test on Pyricularia oryzae (4 ppm) stood at 8%; in the test with Septoria tritici (4 ppm), 11%; in the test with Leptosphaeria nodorum (active alone, 4 ppm) it was 26%.

For `CCCN(CCOc1c(Cl)cc(Cl)cc1Cl)C(=O)n1ccnc1` [Prochloraz], the Observed efficacy with Septoria tritici (0.063 ppm) came to 20%.

For `OC(Cc1ccccc1Cl)(Cn1nc[nH]c1=S)C1(Cl)CC1` (centres unmarked) [Prothioconazol], the inhibition of growth at 1 ppm with Leptosphaeria nodorum (setting [1]) was 52%.

`COC(=O)N(OC)c1ccccc1COc1ccn(-c2ccc(Cl)cc2)n1` [Pyraclostrobin]: the inhibition of growth at 0.25 ppm with Leptosphaeria nodorum (Parastagonospora nodorum, 168 h, active alone, 0.25 ppm, read-out: Observed efficacy) stood at 57%.

Compound `Cc1cc(C)nc(Nc2ccccc2)n1` [Pyrimethanil] returned an Observed efficacy with Pyricularia oryzae (16 ppm) of 72%.

In the case of `CC(C)(C)C(O)(CCc1ccc(Cl)cc1)Cn1cncn1` (centres unmarked) [Tebuconazol], the Observed efficacy in the test with Septoria tritici (0.25 ppm) came to 54%.
